Source: patent EP1304333A2, “6,7-Oxygenated steroids and uses related thereto” (Inflazyme Pharmaceuticals, Ltd., priority 1996, dated 1998)

Key:
[1] = tested on: rabbit platelets; test: Inhibition of PAF-induced aggregation of rabbit platelets; format: cell-based; details: 80 µM compound, 5 min preincubation; PAF-induced aggregation (title: 0.1 nM PAF) vs DMSO alone
Description: The assay system used to evaluate the ability of compounds to inhibit the aggregation of platelets in response to exogenous stimuli is indicative of anti-thrombotic or thrombolytic activity.
Platelets were isolated from rabbit blood and prepared at a density of 2.4 x 10^8 cells/ml in Tyrodes buffer (pH 7.2) containing Ca^2+. Platelets were incubated with each compound for 5 min at 37°C prior to stimulation. Platelets were stimulated with 1 nM platelet activating factor (PAF; EC75) in the presence of each of the compounds and aggregation was monitored for 5 min. Compounds were solubilized in dimethylsulfoxide (DMSO) and aggregation was measured as a percentage of the response to 1 nM PAF obtained in the presence of the appropriate concentration of DMSO. The degree of inhibition caused by each sample was calculated using the control response in the presence of DMSO equal to 100%.

[2] = tested on: rat mast cell line (RBL-2H3); test: Antigen-induced release of hexosaminidase from passively sensitized rat mast cells; format: cell-based; details: Table 3; each 25 µM; vs DMSO alone
Description: The anti-allergic effects of various polyhydroxylated steroids of the present invention were evaluated by measuring their effect on antigen-induced secretion of hexosaminidase from a passively sensitized rat mast cell line (RBL-2H3) and a murine mast cell line (MC/9). The ability of agents to inhibit the release of mast cell granule contents, e.g., histamine and hexosaminidase, is indicative of anti-allergy and/or anti-asthma activity.
Hexosaminidase is released from the mast cell granule along with histamine and other mediators during antigen challenge. RBL-2H3 and MC/9 cells were grown in culture and passively sensitized to dinitrophenol (DNP) using anti-human-DNP (IgE). […] Aliquots of the supernatant were removed and used to measure the amount of hexosaminidase released during challenge with the antigen. […] The effect of each compound was determined as a percentage of the antigen-induced response (minus background release) obtained in the presence of DMSO alone, as set forth in Tables 2 and 3. These values were used to determine the degrees of inhibition of antigen-induced hexosaminidase release from the cells.

[3] = tested on: isolated trachea; test: Allergen (OA)-induced contraction of isolated trachea from sensitized guinea pigs; design: species or system guinea pig; details: Study 1, 20 µM compound
Description: The effects of a number of the compounds described herein on allergen-induced bronchoconstriction were evaluated for anti-asthma activity. The ability of a compound to inhibit allergen-induced decreases in lung function in sensitized guinea pigs in response to antigen-challenge is indicative of anti-asthma activity. In particular, the model system is useful in the evaluation of the potential effects of a compound in the treatment of the early asthmatic reaction (EAR) when severe bronchoconstriction occurs.
Guinea pigs were exposed to a nebulized solution of 1% ovalbumin (OA) in saline for 15 min. […] Tracheal rings were prepared and bathed in Krebs-Henseleit solution at 37°C and aerated with 5% CO2 in O2. Tissues were suspended under a resting tension of 2 g and isometric contractions were measured using force-displacement transducers coupled to a polygraph. Tissues were incubated with each compound or 0.1% dimethylsulfoxide (as a control) for 20 min, after which increasing concentrations of OA (0.001 - 100 µg/ml) were added to the tissue. After the final concentration of OA was added and the response was recorded, the tissues were stimulated with 100 µM methacholine which caused maximum contraction of the trachea. The magnitude of the contraction induced by OA in the presence of each compound was expressed as a percentage of the maximum contraction obtained using methacholine (100 µM).

3β, 4α, 6α, 7β, 17β-pentahydroxy-5α-androstane 6,7-acetonide [Compound 246]
%Inhibition at 80 µM [1]: 21%
Percentage Inhibition (mean) RBL-2H3 Cells [2]: 29.4%
percentage contraction compared to 100µM methacholine (100%) ([3]; 0.001 µg/ml OA): 2.6%
percentage contraction compared to 100µM methacholine (100%) ([3]; 0.003 µg/ml OA): 4.0%
percentage contraction compared to 100µM methacholine (100%) ([3]; 0.01 µg/ml OA): 6.5%
percentage contraction compared to 100µM methacholine (100%) ([3]; 0.03 µg/ml OA): 9.7%
percentage contraction compared to 100µM methacholine (100%) ([3]; 0.1 µg/ml OA): 12.2%
percentage contraction compared to 100µM methacholine (100%) ([3]; 0.3 µg/ml OA): 15.3%
percentage contraction compared to 100µM methacholine (100%) ([3]; 1.0 µg/ml OA): 20.0%
percentage contraction compared to 100µM methacholine (100%) ([3]; 3.0 µg/ml OA): 21.0%
percentage contraction compared to 100µM methacholine (100%) ([3]; 10.0 µg/ml OA): 23.0%
percentage contraction compared to 100µM methacholine (100%) ([3]; 30.0 µg/ml OA): 22.0%
